Data published in ChEMBL document CHEMBL1133208, “Synthesis and biological properties of new 1beta-methylcarbapenems having tetrazolothioether moiety” (Bioorg Med Chem Lett, 2000).
Values after ≈ are worked out from the molar mass of the structure shown.

Tests used:
Enterobacter cloacae = assay: In vitro antibacterial activity against Enterobacter cloacae 1321E by agar dilution method using Mueller-Hinton; type: functional
Escherichia coli [1] = assay: In vitro antibacterial activity against Escherichia coli 078 by agar dilution method using Mueller-Hinton; type: functional
Escherichia coli [2] = assay: In vitro antibacterial activity against Escherichia coli 1507E by agar dilution method using Mueller-Hinton; type: functional
Klebsiella aerogenes = assay: In vitro antibacterial activity against Klebsiella aerogenes 1522E by agar dilution method using Mueller-Hinton; type: functional
Pseudomonas aeruginosa [3] = assay: In vitro antibacterial activity against Pseudomonas aeruginosa 1771M by agar dilution method using Mueller-Hinton; type: functional
Pseudomonas aeruginosa [4] = assay: In vitro antibacterial activity against Pseudomonas aeruginosa 9027 by agar dilution method using Mueller-Hinton; type: functional
Pseudomonas aeruginosa [5] = assay: In vitro antibacterial activity against Pseudomonas aeruginosa 1592E by agar dilution method using Mueller-Hinton; type: functional
Salmonella typhimurium = assay: In vitro antibacterial activity against Salmonella Typhimurium by agar dilution method using Mueller-Hinton; type: functional, Salmonella enterica subsp. enterica serovar Typhimurium; conditions: Salmonella enterica
Staphylococcus aureus [6] = assay: In vitro antibacterial activity against Staphylococcus aureus SG 285 by agar dilution method using Mueller-Hinton; type: functional
Staphylococcus aureus [7] = assay: In vitro antibacterial activity against Staphylococcus aureus SG 503 by agar dilution method using Mueller-Hinton; type: functional
Staphylococcus aureus [8] = assay: In vitro antibacterial activity against Staphylococcus aureus SG 511 by agar dilution method using Mueller-Hinton; type: functional
Streptococcus pyogenes = assay: In vitro antibacterial activity against Streptococcus pyogenes 308A by agar dilution method using Mueller-Hinton; type: functional
[9] = The area under concentration-time curve(AUC) was determined at 20 mg/kg of compound dose, administered intravenously in rat; type: ADME, organism-based; parameters: dose 20 mg/kg, route intravenous; conditions: in vivo, iv
[10] = Pharmacokinetic studies were carried out to determine the clearance after administration at 20 mg/kg intravenously in rat; type: ADME, organism-based; parameters: dose 20 mg/kg, route intravenous; conditions: in vivo, iv

For `C[C@@H](O)[C@H]1C(=O)N2C(C(=O)O)=C(S[C@@H]3CN[C@H](CSc4nnnn4CCS(=O)(=O)N(C)C)C3)[C@H](C)[C@H]12`, which MIC (Enterobacter cloacae) is on record?
Its MIC is 0.025 mg/L (≈ 0.0445 µM).

What about the MIC (Escherichia coli [1]) of the same molecule?
The MIC was 0.025 mg/L (≈ 0.0445 µM).

What about the MIC (Escherichia coli [2]) of the same molecule?
The MIC was 0.025 mg/L (≈ 0.0445 µM).

What about the MIC (Klebsiella aerogenes) of the same molecule?
Its MIC is 0.049 mg/L (≈ 0.0872 µM).

And the MIC (Pseudomonas aeruginosa [3])?
Its MIC is 0.391 mg/L (≈ 0.696 µM).

What about the MIC (Pseudomonas aeruginosa [4]) of the same molecule?
Its MIC is 6.25 mg/L (≈ 11.1 µM).

And the MIC (Pseudomonas aeruginosa [5])?
Its MIC is 12.5 mg/L (≈ 22.3 µM).

What about the MIC (Salmonella typhimurium) of the same molecule?
The MIC was 0.049 mg/L (≈ 0.0872 µM).

And the MIC (Staphylococcus aureus [6])?
The MIC was 0.098 mg/L (≈ 0.174 µM).

What about the MIC (Staphylococcus aureus [7]) of the same molecule?
Its MIC is 0.025 mg/L (≈ 0.0445 µM).

What about the MIC (Staphylococcus aureus [8]) of the same molecule?
Its MIC is 0.098 mg/L (≈ 0.174 µM).

What about the MIC (Streptococcus pyogenes) of the same molecule?
Its MIC is 0.007 mg/L (≈ 0.0125 µM).

With `C[C@@H](O)[C@H]1C(=O)N2C(C(=O)O)=C(S[C@@H]3CN[C@H](CSc4nnnn4CCO)C3)[C@H](C)[C@H]12` as the molecule, how does the MIC (Enterobacter cloacae) read?
The MIC was 0.049 mg/L (≈ 0.104 µM).

And the MIC (Escherichia coli [1])?
Its MIC is 0.025 mg/L (≈ 0.0531 µM).

What about the MIC (Escherichia coli [2]) of the same molecule?
Its MIC is 0.025 mg/L (≈ 0.0531 µM).

And the MIC (Klebsiella aerogenes)?
The MIC was 0.049 mg/L (≈ 0.104 µM).

What about the MIC (Pseudomonas aeruginosa [3]) of the same molecule?
Its MIC is 0.195 mg/L (≈ 0.414 µM).

And the MIC (Pseudomonas aeruginosa [4])?
The MIC was 1.56 mg/L (≈ 3.32 µM).

And the MIC (Pseudomonas aeruginosa [5])?
Its MIC is 1.56 mg/L (≈ 3.32 µM).

What about the MIC (Salmonella typhimurium) of the same molecule?
The MIC was 0.049 mg/L (≈ 0.104 µM).

What about the MIC (Staphylococcus aureus [6]) of the same molecule?
The MIC was 0.098 mg/L (≈ 0.208 µM).

What about the MIC (Staphylococcus aureus [7]) of the same molecule?
The MIC was 0.049 mg/L (≈ 0.104 µM).

And the MIC (Staphylococcus aureus [8])?
Its MIC is 0.098 mg/L (≈ 0.208 µM).

What about the MIC (Streptococcus pyogenes) of the same molecule?
Its MIC is 0.007 mg/L (≈ 0.0149 µM).

Which MIC (Enterobacter cloacae) does the source give for `C[C@@H](O)[C@H]1C(=O)N2C(C(=O)O)=C(S[C@@H]3CN[C@H](CSc4nnnn4CCC(N)=O)C3)[C@H](C)[C@H]12` here?
The MIC was 0.025 mg/L (≈ 0.0502 µM).

What about the MIC (Escherichia coli [1]) of the same molecule?
Its MIC is 0.025 mg/L (≈ 0.0502 µM).

What about the MIC (Escherichia coli [2]) of the same molecule?
Its MIC is 0.025 mg/L (≈ 0.0502 µM).

And the MIC (Klebsiella aerogenes)?
The MIC was 0.049 mg/L (≈ 0.0985 µM).

What about the MIC (Pseudomonas aeruginosa [3]) of the same molecule?
Its MIC is 0.195 mg/L (≈ 0.392 µM).

And the MIC (Pseudomonas aeruginosa [4])?
The MIC was 1.56 mg/L (≈ 3.14 µM).

What about the MIC (Pseudomonas aeruginosa [5]) of the same molecule?
Its MIC is 0.781 mg/L (≈ 1.57 µM).

And the MIC (Salmonella typhimurium)?
The MIC was 0.049 mg/L (≈ 0.0985 µM).

What about the MIC (Staphylococcus aureus [6]) of the same molecule?
Its MIC is 0.098 mg/L (≈ 0.197 µM).

And the MIC (Staphylococcus aureus [7])?
The MIC was 0.025 mg/L (≈ 0.0502 µM).

And the MIC (Staphylococcus aureus [8])?
Its MIC is 0.098 mg/L (≈ 0.197 µM).

And the MIC (Streptococcus pyogenes)?
The MIC was 0.013 mg/L (≈ 0.0261 µM).

What does the source list for `C[C@@H](O)[C@H]1C(=O)N2C(C(=O)O)=C(S[C@@H]3CN[C@H](CSc4nnnn4-c4ccccc4)C3)[C@H](C)[C@H]12`?
MIC (Enterobacter cloacae): 0.098 mg/L (≈ 0.195 µM); MIC (Escherichia coli [1]): 0.195 mg/L (≈ 0.388 µM); MIC (Escherichia coli [2]): 0.391 mg/L (≈ 0.778 µM); MIC (Klebsiella aerogenes): 0.391 mg/L (≈ 0.778 µM); MIC (Pseudomonas aeruginosa [3]): 3.12 mg/L (≈ 6.22 µM); MIC (Pseudomonas aeruginosa [4]): 50 mg/L (≈ 99.5 µM); MIC (Pseudomonas aeruginosa [5]): 50 mg/L (≈ 99.5 µM); MIC (Salmonella typhimurium): 0.098 mg/L (≈ 0.195 µM); MIC (Staphylococcus aureus [6]): 0.049 mg/L (≈ 0.0975 µM); MIC (Staphylococcus aureus [7]): 0.025 mg/L (≈ 0.0497 µM); MIC (Staphylococcus aureus [8]): 0.049 mg/L (≈ 0.0975 µM); MIC (Streptococcus pyogenes): 0.007 mg/L (≈ 0.0139 µM)

What does the source list for `CNC(=O)CCn1nnnc1SC[C@@H]1C[C@H](SC2=C(C(=O)O)N3C(=O)[C@H]([C@@H](C)O)[C@H]3[C@H]2C)CN1`?
MIC (Enterobacter cloacae): 0.025 mg/L (≈ 0.0489 µM); MIC (Escherichia coli [1]): 0.025 mg/L (≈ 0.0489 µM); MIC (Escherichia coli [2]): 0.025 mg/L (≈ 0.0489 µM); MIC (Klebsiella aerogenes): 0.049 mg/L (≈ 0.0958 µM); MIC (Pseudomonas aeruginosa [3]): 0.391 mg/L (≈ 0.764 µM); MIC (Pseudomonas aeruginosa [4]): 1.56 mg/L (≈ 3.05 µM); MIC (Pseudomonas aeruginosa [5]): 1.56 mg/L (≈ 3.05 µM); MIC (Salmonella typhimurium): 0.049 mg/L (≈ 0.0958 µM); MIC (Staphylococcus aureus [6]): 0.098 mg/L (≈ 0.192 µM); MIC (Staphylococcus aureus [7]): 0.049 mg/L (≈ 0.0958 µM); MIC (Staphylococcus aureus [8]): 0.098 mg/L (≈ 0.192 µM); MIC (Streptococcus pyogenes): 0.007 mg/L (≈ 0.0137 µM)

For `C[C@@H](O)[C@H]1C(=O)N2C(C(=O)O)=C(S[C@@H]3CN[C@H](CSc4nnnn4C)C3)[C@H](C)[C@H]12`, which AUC [9] is on record?
The AUC was 15.9 µg·h/mL.

And the clearance [10]?
Its clearance is 1.31 L/h/kg.

And the MIC (Enterobacter cloacae)?
Its MIC is 0.025 mg/L (≈ 0.0567 µM).

And the MIC (Escherichia coli [1])?
Its MIC is 0.025 mg/L (≈ 0.0567 µM).

And the MIC (Escherichia coli [2])?
Its MIC is 0.025 mg/L (≈ 0.0567 µM).

And the MIC (Klebsiella aerogenes)?
Its MIC is 0.025 mg/L (≈ 0.0567 µM).

And the MIC (Pseudomonas aeruginosa [3])?
The MIC was 0.195 mg/L (≈ 0.443 µM).

And the MIC (Pseudomonas aeruginosa [4])?
Its MIC is 0.781 mg/L (≈ 1.77 µM).

And the MIC (Pseudomonas aeruginosa [5])?
The MIC was 0.781 mg/L (≈ 1.77 µM).

And the MIC (Salmonella typhimurium)?
The MIC was 0.025 mg/L (≈ 0.0567 µM).

And the MIC (Staphylococcus aureus [6])?
The MIC was 0.049 mg/L (≈ 0.111 µM).

And the MIC (Staphylococcus aureus [7])?
Its MIC is 0.025 mg/L (≈ 0.0567 µM).

And the MIC (Staphylococcus aureus [8])?
Its MIC is 0.025 mg/L (≈ 0.0567 µM).

And the MIC (Streptococcus pyogenes)?
The MIC was 0.004 mg/L (≈ 0.00908 µM).

For `C[C@@H](O)[C@H]1C(=O)N2C(C(=O)O)=C(S[C@@H]3CN[C@H](CSc4nnnn4-c4ccncc4)C3)[C@H](C)[C@H]12`, which MIC (Enterobacter cloacae) is on record?
The MIC was 0.098 mg/L (≈ 0.195 µM).

What about the MIC (Escherichia coli [1]) of the same molecule?
Its MIC is 0.098 mg/L (≈ 0.195 µM).

What about the MIC (Escherichia coli [2]) of the same molecule?
The MIC was 0.195 mg/L (≈ 0.387 µM).

And the MIC (Klebsiella aerogenes)?
Its MIC is 0.195 mg/L (≈ 0.387 µM).

And the MIC (Pseudomonas aeruginosa [3])?
The MIC was 0.781 mg/L (≈ 1.55 µM).

And the MIC (Pseudomonas aeruginosa [4])?
The MIC was 50 mg/L (≈ 99.3 µM).

And the MIC (Pseudomonas aeruginosa [5])?
The MIC was 50 mg/L (≈ 99.3 µM).

What about the MIC (Salmonella typhimurium) of the same molecule?
The MIC was 0.049 mg/L (≈ 0.0973 µM).

What about the MIC (Staphylococcus aureus [6]) of the same molecule?
Its MIC is 0.098 mg/L (≈ 0.195 µM).

And the MIC (Staphylococcus aureus [7])?
Its MIC is 0.049 mg/L (≈ 0.0973 µM).

And the MIC (Staphylococcus aureus [8])?
Its MIC is 0.049 mg/L (≈ 0.0973 µM).

And the MIC (Streptococcus pyogenes)?
Its MIC is 0.007 mg/L (≈ 0.0139 µM).
